Test results from patent US20090247520A1, “INHIBITORS OF ANTIGEN RECEPTOR-INDUCED NF-kappa B ACTIVATION” (The Burnham Institute for Medical Research, priority 2008, published 2009).

Experiments:
[1] = target: T1, JAK2 (Homo sapiens, UniProt O60674); experiment: KINOMEscan competition binding assay, JAK2
T1 construct: proprietary tag (Ambit); purchased Ambit, Inc
From the text: CID-2858522 is not a potent protein kinase inhibitor. Protein kinases play critical roles in NF-κB activation. PKCs are proximal kinases in the NF-κB pathways activated by PMA/Ionomycin and by T- and B-cell antigen receptors, while the IKKs are distal kinases operating in the terminal segments of these and other NF-κB activation pathways. We therefore tested whether CID-2858522 inhibits members of these kinase families by in vitro kinase assays. For these experiments, we tested PKC-beta and PKC-theta (the PKC family members implicated in TCR/BCR signaling), and IKK-beta (a component of the IKK complex) (FIG. 6). […] In addition to assessing these three kinases by conventional in vitro kinase assays, a kinome screen was performed using a high throughput screening method, KINOMEscan™, which is an active-site dependent competition binding assay in which human kinases of interest are fused to a proprietary tag (Ambit). The amount of kinase bound to an immobilized, active-site directed ligand is measured in the presence and absence of the test compound. […] Thus, CID-2858522 inhibits none of the protein kinases previously implicated in regulating NF-κB.
In Vitro Kinase Assays. PKC-beta, PKC-theta and IKK-beta in vitro kinase assays were performed using the HTScan Kinase Assay Kit (Cell Signaling, Danvers, Mass.) according to manufacturer's protocols. […]

[2] = target: T2, PKC-beta (Homo sapiens, UniProt P05771); experiment: In vitro kinase assay PKC-beta (HTScan kit); format: biochemical; conditions: CID-2858522 up to 8 μM; STS 0.5 μM; PKC inhibitor 1 μM
T2 construct: purchased Cell Signaling, Danvers, Mass
T2 sequence (P05771 whole entry): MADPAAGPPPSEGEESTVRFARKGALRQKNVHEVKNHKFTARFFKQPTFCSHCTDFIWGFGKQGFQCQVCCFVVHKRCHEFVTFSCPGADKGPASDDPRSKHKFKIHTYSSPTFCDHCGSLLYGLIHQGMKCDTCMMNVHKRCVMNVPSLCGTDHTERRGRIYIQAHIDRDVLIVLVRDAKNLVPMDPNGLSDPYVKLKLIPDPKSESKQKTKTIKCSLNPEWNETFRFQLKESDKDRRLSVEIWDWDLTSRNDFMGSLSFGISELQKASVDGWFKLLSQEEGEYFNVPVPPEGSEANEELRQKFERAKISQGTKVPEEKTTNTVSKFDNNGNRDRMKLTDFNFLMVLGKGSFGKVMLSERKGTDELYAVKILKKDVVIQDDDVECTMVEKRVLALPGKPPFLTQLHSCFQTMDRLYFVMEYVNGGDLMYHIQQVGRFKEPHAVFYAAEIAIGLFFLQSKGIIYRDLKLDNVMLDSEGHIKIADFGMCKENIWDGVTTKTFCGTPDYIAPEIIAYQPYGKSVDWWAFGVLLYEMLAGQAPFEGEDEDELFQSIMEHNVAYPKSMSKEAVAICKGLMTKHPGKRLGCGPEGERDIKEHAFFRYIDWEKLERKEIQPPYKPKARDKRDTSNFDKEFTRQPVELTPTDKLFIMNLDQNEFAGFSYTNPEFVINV
Method: CID-2858522 (8 μM) were tested in in vitro IKK beta (A), PKC beta […] or PKC theta (C) kinase assays using kits. STS (0.5 μM), IKK inhibitor (10 μM) and PKC inhibitor (1 μM) were used as positive controls.
In Vitro Kinase Assays. PKC-beta, PKC-theta and IKK-beta in vitro kinase assays were performed using the HTScan Kinase Assay Kit (Cell Signaling, Danvers, Mass.) according to manufacturer's protocols. A panel of >300 kinases was screened by Ambit, Inc.

[3] = tested on: phosphorylation of CARMA1; experiment: PMA-induced CARMA1 phosphorylation in HEK293 cells (immunoblot); format: cell-based; conditions: CID-2858522 4 μM
Method: FIG. 7. CID-285852 inhibits IKKβ phosphorylation induced by PKC activators. (A) HEK293 cells were cultured in 0.5% FBS medium for 24 h and then treated with CID-2858522 (4 μM) or PKC inhibitor, Bisindolylmaleimide I (1 μM) for 2 hrs followed by PMA/Ionomycin (10 ng/mL; 5 ng/mL) for 2 h. Cell lysates were subjected to immunoprecipitation using anti-CARMA1 antibody and analyzed by immunoblotting with anti-phospho-CARMA1 antibody or anti-CARMA1 antibody. (B-E) HEK293 cells were transfected with plasmids encoding myc-CARMA1 in combination with plasmids encoding various other proteins including Caspase-8 (cys287ala) (B), HA-IKK-γ (C), HA-TAK1 (D), and TRAF6 (E). After 36 h. cells were cultured in 0.5% FBS medium for 12 h and then treated with CID-2858522 (4 μM) or Bisindolylmaleimide I (1 μM) for 2 hrs, followed by PMA/Ionomycin treatment (10 ng/mL; 5 ng/mL) for 2 hrs. Cell lysates were immunoprecipated using anti-myc antibody and analyzed by immunoblotting using anti-Caspase8 (B), anti-HA (C,D), or anti-TRAF6 (E) antibodies. […] Cell lysates were normalized for protein content and analyzed by immunoblotting using anti-FLIP and anti-alpha-tubulin antibodies. […] Cell lysates were immunoprecipitated using anti-IKK-β and analyzed by immunoblotting using anti-phospho-IKK-β antibody or anti-IKK-β antibody (as loading control). […]

T1 sequence (O60674 whole entry): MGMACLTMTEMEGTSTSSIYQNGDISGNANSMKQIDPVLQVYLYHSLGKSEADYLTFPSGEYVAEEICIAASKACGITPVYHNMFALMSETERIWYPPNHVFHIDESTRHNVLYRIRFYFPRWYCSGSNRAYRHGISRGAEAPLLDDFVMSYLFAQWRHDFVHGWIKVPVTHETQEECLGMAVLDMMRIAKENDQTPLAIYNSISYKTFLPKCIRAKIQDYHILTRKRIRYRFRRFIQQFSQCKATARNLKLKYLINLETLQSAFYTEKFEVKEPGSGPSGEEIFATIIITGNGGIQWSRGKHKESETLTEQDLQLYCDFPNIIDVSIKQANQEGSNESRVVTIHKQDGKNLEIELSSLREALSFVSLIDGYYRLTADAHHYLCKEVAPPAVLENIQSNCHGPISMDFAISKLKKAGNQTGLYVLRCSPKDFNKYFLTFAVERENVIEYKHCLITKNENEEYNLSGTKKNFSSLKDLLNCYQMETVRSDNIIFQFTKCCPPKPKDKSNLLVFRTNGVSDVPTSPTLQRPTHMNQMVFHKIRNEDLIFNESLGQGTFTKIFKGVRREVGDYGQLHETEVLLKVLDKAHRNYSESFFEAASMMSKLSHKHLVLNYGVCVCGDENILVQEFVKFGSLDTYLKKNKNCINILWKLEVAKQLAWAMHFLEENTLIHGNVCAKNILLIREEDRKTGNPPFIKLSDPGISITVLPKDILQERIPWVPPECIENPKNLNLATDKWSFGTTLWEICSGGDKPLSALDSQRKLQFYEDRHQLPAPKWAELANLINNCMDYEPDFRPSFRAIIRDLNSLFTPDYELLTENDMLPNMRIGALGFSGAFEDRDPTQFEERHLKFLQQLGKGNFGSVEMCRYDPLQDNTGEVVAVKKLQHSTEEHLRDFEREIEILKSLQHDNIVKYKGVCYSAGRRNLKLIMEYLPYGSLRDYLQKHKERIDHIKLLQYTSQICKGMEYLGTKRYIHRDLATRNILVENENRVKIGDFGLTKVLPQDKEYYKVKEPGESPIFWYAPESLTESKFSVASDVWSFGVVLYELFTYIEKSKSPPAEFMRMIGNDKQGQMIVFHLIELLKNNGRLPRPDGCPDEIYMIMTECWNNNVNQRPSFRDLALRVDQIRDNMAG

Compound	inhibition at 10 µM [1]	inhibition of PKC-beta kinase activity [2]	effect on PMA-induced phosphorylation of CARMA1 [3]
Cc1cc2nc(NCCCO)n(CC(=O)c3cc(C(C)(C)C)c(O)c(C(C)(C)C)c3)c2cc1C [Compound 1, 2-(2-(3-Hydroxypropylamino)-5,6-dimethyl-1H-benzo[d]imidazol-1-yl)-1-(3,5-di-tert-butyl-4-hydroxyphenyl)ethanone]	53%	failed to suppress	no effect
CN(C)CCCn1cc(C2=C(c3c[nH]c4ccccc34)C(=O)NC2=O)c2ccccc21 [Bisindolylmaleimide I, reference compound]	–	potent inhibition	–
